Source: US9062071B2, “Substituted piperidines as HDM2 inhibitors” (Merck Sharp & Dohme Corp, priority 2011, dated 2015)

molecular target: HDM2 protein (Homo sapiens, UniProt Q00987); assay: fluorescence polarization screening assay (FP IC50); format: binding; conditions: class symbols
Description: The compounds were evaluated to determine activity at the HDM2 protein by known methods such as the fluorescence polarization screening assay that measures the inhibitory concentration that achieves 50% of maximal activity (FP IC50) and the dissociation constant for inhibitor binding (FP Ki). [Zhang et al., J. Analytical Biochemistry 331: 138-146 (2004)].

Sequence of HDM2 protein (Q00987 whole entry): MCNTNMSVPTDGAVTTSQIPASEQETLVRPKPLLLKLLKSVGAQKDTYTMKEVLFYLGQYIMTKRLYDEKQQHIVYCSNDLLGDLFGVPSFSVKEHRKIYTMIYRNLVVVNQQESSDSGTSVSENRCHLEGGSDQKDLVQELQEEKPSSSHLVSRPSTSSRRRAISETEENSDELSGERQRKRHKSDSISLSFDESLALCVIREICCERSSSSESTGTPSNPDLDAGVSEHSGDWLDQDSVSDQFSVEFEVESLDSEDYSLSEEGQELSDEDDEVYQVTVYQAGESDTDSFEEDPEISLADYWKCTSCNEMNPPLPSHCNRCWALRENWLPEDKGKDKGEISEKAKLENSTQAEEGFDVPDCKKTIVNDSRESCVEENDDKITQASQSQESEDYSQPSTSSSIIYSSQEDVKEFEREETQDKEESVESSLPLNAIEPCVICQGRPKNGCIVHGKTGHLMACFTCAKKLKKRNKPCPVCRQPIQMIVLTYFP

Compound | IC50
CCC[C@H]1N(C(=O)c2ncccc2C(F)(F)F)CCC[C@@]1(Oc1csc(C(F)(F)F)c1)C(=O)N1Cc2ccc(Cl)cc2C[C@@H]1C[C@H](COC)C(=O)O [Compound A161, (2R)-3-[(3S)-6-chloro-2-{[(2R,3S)-2-propyl-1-{[3-(trifluoromethyl)pyridin-2-yl]carbonyl}-3-{[5-(trifluoromethyl)thiophen-3-yl]oxy}piperidin-3-yl]carbonyl}-1,2,3,4-tetrahydroisoquinolin-3-yl]-2-(methoxymethyl) propanoic acid] | 1 to 100 nM
CCC[C@H]1N(C(=O)c2ncccc2C(F)(F)F)CCC[C@@]1(Oc1csc(C(F)(F)F)c1)C(=O)N1Cc2ccc(F)cc2C[C@H]1CN1CCC(O)CC1 [Compound A162, 1-{[(3S)-6-fluoro-2-{[(2R,3S)-2-propyl-1-{[3-(trifluoromethyl)pyridin-2-yl]carbonyl}-3-{[5-(trifluoromethyl)thiophen-3-yl]oxy}piperidin-3-yl]carbonyl}-1,2,3,4-tetrahydroisoquinolin-3-yl]methyl}piperidin-4-ol] | 101 to 20000 nM
CCC[C@H]1N(C(=O)c2ncccc2C(F)(F)F)CCC[C@@]1(Oc1csc(C(F)(F)F)c1)C(=O)N1Cc2ccc(F)cc2C[C@@H]1CCN(C)C(=O)[C@@H](C)O [Compound A163, (2R)-N-{2-[(3R)-6-fluoro-2-{[(2R,3S)-2-propyl-1-{[3-(trifluoromethyl)pyridin-2-yl]carbonyl}-3-{[5-(trifluoromethyl)thiophen-3-yl]oxy}piperidin-3-yl]carbonyl}-1,2,3,4-tetrahydroisoquinolin-3-yl]ethyl}-2-hydroxy-N-methylpropanamide] | 1 to 100 nM
CCC[C@H]1N(C(=O)c2ncccc2C(F)(F)F)CCC[C@@]1(Oc1csc(C(F)(F)F)c1)C(=O)N1Cc2ccc(Cl)cc2C[C@@H]1C[C@H](O)C(=O)O [Compound A164, (2S)-3-[(3R)-6-chloro-2-{[(2R,3S)-2-propyl-1-{[3-(trifluoromethyl)pyridin-2-yl]carbonyl}-3-{[5-(trifluoromethyl)thiophen-3-yl]oxy}piperidin-3-yl]carbonyl}-1,2,3,4-tetrahydroisoquinolin-3-yl]-2-hydroxypropanoic acid] | 1 to 100 nM
CCC[C@H]1N(C(=O)c2ncccc2C(F)(F)F)CCC[C@@]1(Oc1csc(C(F)(F)F)c1)C(=O)N1Cc2ccc(Cl)cc2C[C@@H]1C[C@H](CC)C(=O)O [Compound A165, (2S)-2-{[(3S)-6-chloro-2-{[(2R,3S)-2-propyl-1-{[3-(trifluoromethyl)pyridin-2-yl]carbonyl}-3-{[5-(trifluoromethyl)thiophen-3-yl]oxy}piperidin-3-yl]carbonyl}-1,2,3,4-tetrahydroisoquinolin-3-yl]methyl}butanoic acid] | 1 to 100 nM
CCC[C@H]1N(C(=O)c2ncccc2C(F)(F)F)CCC[C@@]1(Oc1csc(C(F)(F)F)c1)C(=O)N1Cc2ccc(Cl)cc2C[C@@H]1C(=O)NC1CCOCC1 [Compound A166, (3R)-6-chloro-2-{[(2R,3S)-2-propyl-1-{[3-(trifluoromethyl)pyridin-2-yl]carbonyl}-3-{[5-(trifluoromethyl)thiophen-3-yl]oxy}piperidin-3-yl]carbonyl}-N-(tetrahydro-2H-pyran-4-yl)-1,2,3,4-tetrahydroisoquinoline-3-carboxamide] | 1 to 100 nM
CCC[C@H]1N(C(=O)c2ncccc2C(F)(F)F)CCC[C@@]1(Oc1csc(C(F)(F)F)c1)C(=O)N1Cc2ccc(F)cc2C[C@H]1CCC(C)O (stereo partly drawn) [Compound A167, 4-[(3R)-6-fluoro-2-{[(2R,3S)-2-propyl-1-{[3-(trifluoromethyl)pyridin-2-yl]carbonyl}-3-{[5-(trifluoromethyl)thiophen-3-yl]oxy}piperidin-3-yl]carbonyl}-1,2,3,4-tetrahydroisoquinolin-3-yl]butan-2-ol] | 1 to 100 nM
CCC[C@H]1N(C(=O)c2ncccc2C(F)(F)F)CCC[C@@]1(Oc1csc(C(F)(F)F)c1)C(=O)N1Cc2ccc(Cl)cc2C[C@@H]1C(=O)N1CCC(O)CC1 [Compound A168, 1-{[(3R)-6-chloro-2-{[(2R,3S)-2-propyl-1-{[3-(trifluoromethyl)pyridin-2-yl]carbonyl}-3-{[5-(trifluoromethyl)thiophen-3-yl]oxy}piperidin-3-yl]carbonyl}-1,2,3,4-tetrahydroisoquinolin-3-yl]carbonyl}piperidin-4-ol] | 1 to 100 nM
CCC[C@H]1N(C(=O)c2ncccc2C(F)(F)F)CCC[C@@]1(Oc1csc(C(F)(F)F)c1)C(=O)N1Cc2ccc(Cl)cc2C[C@@H]1C(=O)N1CCC(OC)CC1 [Compound A169, (3R)-6-chloro-3-[(4-methoxypiperidin-1-yl)carbonyl]-2-{[(2R,3S)-2-propyl-1-{[3-(trifluoromethyl)pyridin-2-yl]carbonyl}-3-{[5-(trifluoromethyl)thiophen-3-yl]oxy}piperidin-3-yl]carbonyl}-1,2,3,4-tetrahydroisoquinoline] | 1 to 100 nM
CCC[C@H]1N(C(=O)c2ncccc2C(F)(F)F)CCC[C@@]1(Oc1csc(C(F)(F)F)c1)C(=O)N1Cc2ccc(Cl)cc2C[C@@H]1C(=O)N1CCC[C@@H](O)C1 [Compound A170, (3R)-1-{[(3R)-6-chloro-2-{[(2R,3S)-2-propyl-1-{[3-(trifluoromethyl)pyridin-2-yl]carbonyl}-3-{[5-(trifluoromethyl)thiophen-3-yl]oxy}piperidin-3-yl]carbonyl}-1,2,3,4-tetrahydroisoquinolin-3-yl]carbonyl}piperidin-3-ol] | 1 to 100 nM
CCC[C@H]1N(C(=O)c2ncccc2C(F)(F)F)CCC[C@@]1(Oc1csc(C(F)(F)F)c1)C(=O)N1Cc2sccc2CC1C(=O)O (stereo partly drawn) [Compound A171, 6-{[(2R,3S)-2-propyl-1-{[3-(trifluoromethyl)pyridin-2-yl]carbonyl}-3-{[5-(trifluoromethyl)thiophen-3-yl]oxy}piperidin-3-yl]carbonyl}-4,5,6,7-tetrahydrothieno[2,3-c]pyridine-5-carboxylic acid] | 101 to 20000 nM
CCC[C@H]1N(C(=O)c2ncccc2C(F)(F)F)CCC[C@@]1(Oc1csc(C(F)(F)F)c1)C(=O)N1Cc2sc(Cl)cc2CC1C(=O)O (stereo partly drawn) [Compound A172, 2-chloro-6-{[(2R,3S)-2-propyl-1-{[3-(trifluoromethyl)pyridin-2-yl]carbonyl}-3-{[5-(trifluoromethyl)thiophen-3-yl]oxy}piperidin-3-yl]carbonyl}-4,5,6,7-tetrahydrothieno[2,3-c]pyridine-5-carboxylic acid] | 1 to 100 nM
CCC[C@H]1N(C(=O)c2ncccc2C(F)(F)F)CCC[C@@]1(Oc1csc(C(F)(F)F)c1)C(=O)N1Cc2sccc2CC1C(=O)O (stereo partly drawn) [Compound A173, 6-{[(2R,3S)-2-propyl-1-{[3-(trifluoromethyl)pyridin-2-yl]carbonyl}-3-{[5-(trifluoromethyl)thiophen-3-yl]oxy}piperidin-3-yl]carbonyl}-4,5,6,7-tetrahydrothieno[2,3-c]pyridine-5-carboxylic acid] | 101 to 20000 nM
CCC[C@H]1N(C(=O)c2ncccc2C(F)(F)F)CCC[C@@]1(Oc1csc(C(F)(F)F)c1)C(=O)N1Cc2sc(Cl)cc2CC1C(=O)O (stereo partly drawn) [Compound A174, 2-chloro-6-{[(2R,3S)-2-propyl-1-{[3-(trifluoromethyl)pyridin-2-yl]carbonyl}-3-{[5-(trifluoromethyl)thiophen-3-yl]oxy}piperidin-3-yl]carbonyl}-4,5,6,7-tetrahydrothieno[2,3-c]pyridine-5-carboxylic acid] | 1 to 100 nM
CCC[C@H]1N(C(=O)c2ncccc2C(F)(F)F)CCC[C@@]1(Oc1csc(C(F)(F)F)c1)C(=O)N1Cc2sc(Br)cc2C[C@H]1C(=O)NS(C)(=O)=O [Compound A175, (5S)-2-bromo-N-(methylsulfonyl)-6-{[(2R,3S)-2-propyl-1-{[3-(trifluoromethyl)pyridin-2-yl]carbonyl}-3-{[5-(trifluoromethyl)thiophen-3-yl]oxy}piperidin-3-yl]carbonyl}-4,5,6,7-tetrahydrothieno[2,3-c]pyridine-5-carboxamide] | 1 to 100 nM
CCC[C@H]1N(C(=O)c2ncccc2C(F)(F)F)CCC[C@@]1(Oc1csc(C(F)(F)F)c1)C(=O)N1CCc2cc(Cl)ccc2C1CC(C)C (stereo partly drawn) [Compound A176, 6-chloro-1-(2-methylpropyl)-2-{[(2R,3S)-2-propyl-1-{[3-(trifluoromethyl)pyridin-2-yl]carbonyl}-3-{[5-(trifluoromethyl)thiophen-3-yl]oxy}piperidin-3-yl]carbonyl}-1,2,3,4-tetrahydroisoquinoline] | 101 to 20000 nM
CCC[C@H]1N(C(=O)c2ncccc2C(F)(F)F)CCC[C@@]1(Oc1csc(C(F)(F)F)c1)C(=O)N1CCc2cc(Cl)ccc2C1CC(C(=O)O)C(C)C (stereo partly drawn) [Compound A177, 2-[(6-chloro-2-{[(2R,3S)-2-propyl-1-{[3-(trifluoromethyl)pyridin-2-yl]carbonyl}-3-{[5-(trifluoromethyl)thiophen-3-yl]oxy}piperidin-3-yl]carbonyl}-1,2,3,4-tetrahydroisoquinolin-1-yl)methyl]-3-methylbutanoic acid] | 101 to 20000 nM
CCC[C@H]1N(C(=O)c2ncccc2C(F)(F)F)CCC[C@@]1(Oc1csc(C(F)(F)F)c1)C(=O)N1CCc2cc(Cl)ccc2C1CC(C(=O)O)C(C)C (stereo partly drawn) [Compound A178, 2-[(6-chloro-2-{[(2R,3S)-2-propyl-1-{[3-(trifluoromethyl)pyridin-2-yl]carbonyl}-3-{[5-(trifluoromethyl)thiophen-3-yl]oxy}piperidin-3-yl]carbonyl}-1,2,3,4-tetrahydroisoquinolin-1-yl)methyl]-3-methylbutanoic acid] | 1 to 100 nM
CCC[C@H]1N(C(=O)c2ncccc2C(F)(F)F)CCC[C@@]1(Oc1csc(C(F)(F)F)c1)C(=O)N1CCc2cc(Cl)ccc2C1CC(C(=O)O)C(C)C (stereo partly drawn) [Compound A179, 2-[(6-chloro-2-{[(2R,3S)-2-propyl-1-{[3-(trifluoromethyl)pyridin-2-yl]carbonyl}-3-{[5-(trifluoromethyl)thiophen-3-yl]oxy}piperidin-3-yl]carbonyl}-1,2,3,4-tetrahydroisoquinolin-1-yl)methyl]-3-methylbutanoic acid] | 1 to 100 nM
